From patent US20260345593A1, “ORAL FORMULATION OF N-PYRIDINYL ACETAMIDE DERIVATIVE FOR TREATING INTERSTITIAL LUNG DISEASE” (AstraZeneca AB, priority 2022, published 2026)
Where two headings read alike, the source gives them in different places.

Experiments:
[1] = cited from earlier work
[2] = Example 1, first clinical study: pharmacokinetics in healthy subjects; type: in vivo, human; settings: for half-life / Tmax: in vivo; for half-life: read-out: geometric mean terminal half-life
Procedure: This study is in two parts—part 1 involves testing a single ascending dose, whilst part 2 involves testing multiple ascending doses.
Part 1 comprises a Screening Period of a maximum of 6 weeks. This is followed by a Treatment Period during which subjects are resident at the Clinical Unit from 1 day before investigational medicinal product (IMP) administration (Day −1) until at least 72 hours after IMP administration (Day 4). Subjects receive a single oral dose of AZD5055 or placebo on Day 1. This is followed by a Follow-up Visit within 6±1 day after the IMP dose.
Part 2 comprises a Screening Period of a maximum of 6 weeks. This is followed by a treatment period during which subjects are resident at the Clinical Unit from 1 day before IMP administration (Day −1) until at least 72 hours after the last dose given on Day 16 (Day 19). Subjects are dosed for a total of 15 days and receive a single once daily morning dose of AZD5055 or placebo on Day 1 and on Days 3 through Day 16, with no dosing on Day 2. This is followed up a Follow-up Visit within 6±1 day after the IMP dose, and an additional Follow-up Visit within 29±2 days after the last IMP dose.
For cohorts with QD dosing regimens, the Screening Period is followed by a Treatment Period during which subjects are resident at the Clinical Unit from 1 day before IMP administration (Day −1) until at least 72 hours after the last dose given on Day 16 (Day 19). Subjects are dosed for a total of 15 days, receiving a single QD morning dose of AZD5055 or placebo on Day 1 and on Days 3 through Day 16.
For cohorts with BID dosing regimens, the Screening Period is followed by a Treatment Period during which subjects are resident at the Clinical Unit from 1 day before IMP administration (Day −1) until at least 72 hours after the last dose given on Day 16 (Day 19).
Subjects are dosed for a total of 15 days, receiving a single morning dose of AZD5055 or placebo on Day 1 and Day 16, and repeated BID dosing on Day 3 through Day 15, 12 hours (±30 minutes) apart.
The study was conducted in healthy male and healthy female subjects of non-childbearing potential with suitable veins for cannulation or repeated venipuncture. […] Also, the subjects were aged 18 to 55 years inclusive for men and women in Part 1 and only men in Part 2. For female subjects in Part 2, the age range was 18 to 49 years inclusive.
In Part 1 of the study, 3 dose levels of AZD5055 were investigated in 3 cohorts. Each cohort included 8 subjects. Within each cohort, 6 subjects were randomized to receive AZD5055, and 2 subjects were randomized to receive placebo. In Part 2 of the study, 3 dose levels of AZD5055 were investigated in 3 cohorts. In each cohort, 9 subjects were randomized to receive AZD5055, and 3 subjects were randomized to receive placebo.
Primary PK parameters: Cmax, AUCinf, and AUClast; secondary PK parameters: including but not limited to tmax, AUC (0-12) or AUC (0-24) (the one not being the primary parameter), t1/2λz, MRTinf, CL/F, Vz/F, Rac, TCP, Ae(t1-t2), fe (t1-t2), and CLR.
No formal statistical hypothesis testing was performed. The analyses of safety, tolerability, PK, and PD data was summarized descriptively by treatment/dose/study day separately using appropriate descriptive statistics including tables, listings, and graphs, as appropriate. Preliminary dose proportionality of AZD5055 after single dose (Day 1) in Part 1 and 2 and multiple dose (Day 16) in Part 2 was assessed graphically and was analyzed using the power model approach with the logarithm of PK parameters (AUC and Cmax on Day 1) and (AUC(0-τ) and Cmax on Day 16) as the dependent variable and the logarithm of the dose as the independent variable. For data collected in Part 2, the time dependency of the PK was evaluated by comparing AUC(0-τ) (Day 16) with AUC (Day 1) and accumulation was evaluated by comparing AUC(0-τ) (Day 16) with AUC(0-τ) (Day 1) and Cmax (Day 16) with Cmax (Day 1). […]

[3] = test system: healthy participants; test: Example 2: safety in healthy participants; type: in vivo, human
Procedure: The study comprises a screening period of maximum 28 days, and five periods during which subjects will participate from Day −1 of Period 1 to 72 hours after the AZD5055 dose in Period 5.
Period 1: On Day 1, the subjects will receive either 5 mg AZD5055 as a 20-minute IV infusion (Treatment A) in an overnight fasted state or AZD5055 20 mg as oral suspension (Treatment B) in an overnight fasted state.
Period 2: On Day 1 (Study Day 4), the subjects will receive 20 mg AZD5055 film-coated tablet (Treatment C) in an overnight fasted state.
Period 3: On Day 1 (Study Day 8) the subjects will receive a standardized high-fat breakfast 30 minutes before 20 mg AZD5055 administered as film-coated tablet (Treatment D).
Period 4: On Study Day 10, three days prior to Day 1, 20 mg rabeprazole will be administered twice daily. On Day 1 (Study Day 13), 20 mg AZD5055 film-coated tablet will be administered together with rabeprazole and rabeprazole dosing will continue twice daily (Treatment E).
Period 5: On Day 1 (Study Day 17) the participants will receive a low-fat breakfast 30 minutes before 20 mg AZD5055 film-coated tablet administered together with 20 mg rabeprazole.
Rabeprazole will continue twice daily, the last dose is on the evening of Study Day 18 (Treatment F).
Safety Variables—Safety endpoints included adverse events (AEs), clinical laboratory assessments (hematology, clinical chemistry, urinalysis, and urinary albumin:creatinine ratios), vital signs and peripheral oxygen saturation (SpO2), standard 12-lead electrocardiogram, (ECG), telemetry, and physical examinations.
All safety data (scheduled and unscheduled) were presented in the data listings. Continuous variables were summarized using descriptive statistics (n, mean, SD, min, median, max) by treatment. Categorical variables were summarized in frequency tables (frequency and proportion) by treatment/dose group. The analysis of the safety variables was based on the safety analysis set.

[4] = oral bioavailability in several animal species; settings: in vivo, read-out: observed oral bioavailability

## Cc1cc(-c2nccc3c2ccn3CC(=O)Nc2ccc(-c3cnccn3)cn2)ccn1 [AZD5055, 2-[4-(2-methyl-4-pyridyl)pyrrolo[3,2-c]pyridin-1-yl]-N-(5-pyrazin-2-yl-2-pyridyl)acetamide]
[1]
  solubility: pH dependent
[2]; 5 to 40 mg, single and multiple dose
  dose proportionality of exposure: increased approximately proportionally
[2]; human, po, multiple daily administration
  half-life: 12.2 to 17.2 h
[2]; human, po, multiple daily doses of 5 to 20 mg, read-out: tmax (medians)
  Tmax: 1 to 1.3 h
[2]; human, po, observed, oral dose, read-out: tmax (time to Cmax)
  Tmax: 1 h
[2]; human, po, single administration
  half-life: 9.7 to 11.4 h
[2]; human, urine, po, percent of dose administered, read-out: dose recovered unchanged in urine
  dose excreted: < 2.3%
[2]; low
  between-subject variability in Cmax: < 25%
[2]; oral
  decline of concentrations: declined in a bi-phasic manner
  renal clearance share of total clearance: small share of AZD5055 total clearance
[2]; oral suspension, single ascending doses of 7 to 40 mg
  absorption: rapidly absorbed
[2]; repeat daily administration
  accumulation: Little to moderate accumulation
[3]; Period 3 (tablet, high-fat fed)
  participants with SAE (transaminases increased), possibly related: One
[3]; after dosing in Period 3
  AEs leading to discontinuation, events: 2 events
[3]; after dosing in Period 3, transaminases increased and non-cardiac chest pain
  participants with AE leading to discontinuation: Two
[3]; in total
  participants with at least 1 AE of Grade 1 intensity: 8 participants
  participants with at least 1 AE of Grade 2 intensity: 4 participants
[3]; in vivo
  AEs Grade 3 or higher: No AEs Grade 3 or higher
  deaths: no deaths
  laboratory parameters, vital signs, ECGs, physical examination: No clinically relevant trends
[3]; overall
  AEs possibly related to AZD5055, events: 9 events
  any AE, events: 20 events
  participants with any AE: 11 participants
  participants with any AE possibly related to AZD5055: Five
[3]; single oral and IV doses
  tolerability: generally well tolerated
[4]
  bioavailability: 40 to 60%
